Test results taken from the NIST ThermoML archive (doi:10.1021/je8007759).

Assay: xn = mol fraction of the nth substance listed

CC1CCC(=O)O1 (stereo not given) [γ-valerolactone] + O=C=O
Fluid (supercritical or subcritical phases), Pycnometric method
Details | mass density [kg/m3]
313.2 K, 10860 kPa, x1 = 0.1 | 942
313.2 K, 10880 kPa, x1 = 0.025 | 833
313.2 K, 11030 kPa, x1 = 0.01 | 778
313.2 K, 11160 kPa, x1 = 0.025 | 840
313.2 K, 11200 kPa, x1 = 0.05 | 872
313.2 K, 11230 kPa, x1 = 0.15 | 981
313.2 K, 11440 kPa, x1 = 0.01 | 789
313.2 K, 11450 kPa, x1 = 0.025 | 846
313.2 K, 11640 kPa, x1 = 0.1 | 949
313.2 K, 11660 kPa, x1 = 0.05 | 878
313.2 K, 11770 kPa, x1 = 0.025 | 852
313.2 K, 11850 kPa, x1 = 0.15 | 985
313.2 K, 11950 kPa, x1 = 0.01 | 802
313.2 K, 12460 kPa, x1 = 0.15 | 987
313.2 K, 12490 kPa, x1 = 0.1 | 956
313.2 K, 13220 kPa, x1 = 0.15 | 992
313.2 K, 13510 kPa, x1 = 0.1 | 964
313.2 K, 13960 kPa, x1 = 0.15 | 995
313.2 K, 14650 kPa, x1 = 0.15 | 999
313.2 K, 15420 kPa, x1 = 0.15 | 1002
313.2 K, 16160 kPa, x1 = 0.15 | 1006
313.2 K, 16920 kPa, x1 = 0.15 | 1009
316.2 K, 8740 kPa, x1 = 0.025 | 683
316.2 K, 8760 kPa, x1 = 0.025 | 687
316.2 K, 8790 kPa, x1 = 0.025 | 692
316.2 K, 8810 kPa, x1 = 0.025 | 696
316.2 K, 8830 kPa, x1 = 0.025 | 700
316.2 K, 8880 kPa, x1 = 0.025 | 704
316.2 K, 8910 kPa, x1 = 0.025 | 709
316.2 K, 8960 kPa, x1 = 0.025 | 713
316.2 K, 8990 kPa, x1 = 0.025 | 718
316.2 K, 9060 kPa, x1 = 0.025 | 723
316.2 K, 9110 kPa, x1 = 0.025 | 728
316.2 K, 9180 kPa, x1 = 0.025 | 732
316.2 K, 9250 kPa, x1 = 0.025 | 737
316.2 K, 9320 kPa, x1 = 0.025 | 742
316.2 K, 9410 kPa, x1 = 0.025 | 747
316.2 K, 9500 kPa, x1 = 0.025 | 752
316.2 K, 9590 kPa, x1 = 0.025 | 758
316.2 K, 9700 kPa, x1 = 0.025 | 762
316.2 K, 9800 kPa, x1 = 0.025 | 768
316.2 K, 9930 kPa, x1 = 0.025 | 772
316.2 K, 10060 kPa, x1 = 0.025 | 778
316.2 K, 10210 kPa, x1 = 0.025 | 783
316.2 K, 10360 kPa, x1 = 0.025 | 788
316.2 K, 10520 kPa, x1 = 0.025 | 794
316.2 K, 10720 kPa, x1 = 0.025 | 800
316.2 K, 10910 kPa, x1 = 0.025 | 806
316.2 K, 11110 kPa, x1 = 0.025 | 812
316.2 K, 11350 kPa, x1 = 0.025 | 818
316.2 K, 11610 kPa, x1 = 0.025 | 824
316.2 K, 11880 kPa, x1 = 0.025 | 830
316.2 K, 12200 kPa, x1 = 0.025 | 836
316.2 K, 12480 kPa, x1 = 0.025 | 842
318 K, 9060 kPa, x1 = 0.01 | 519
318 K, 9080 kPa, x1 = 0.01 | 522
318 K, 9090 kPa, x1 = 0.01 | 525
318 K, 9110 kPa, x1 = 0.01 | 529
318 K, 9120 kPa, x1 = 0.01 | 532
318 K, 9140 kPa, x1 = 0.01 | 535
318 K, 9180 kPa, x1 = 0.01 | 542
318 K, 9180 kPa, x1 = 0.15 | 949
318 K, 9190 kPa, x1 = 0.025 | 680
318 K, 9220 kPa, x1 = 0.01 | 549
318 K, 9230 kPa, x1 = 0.025 | 683
318 K, 9250 kPa, x1 = 0.01 | 556
318 K, 9260 kPa, x1 = 0.025 | 688
318 K, 9270 kPa, x1 = 0.05 | 776
318 K, 9290 kPa, x1 = 0.01 | 563
318 K, 9290 kPa, x1 = 0.025 | 692
318 K, 9330 kPa, x1 = 0.01 | 570
318 K, 9330 kPa, x1 = 0.05 | 782
318 K, 9340 kPa, x1 = 0.025 | 696
318 K, 9380 kPa, x1 = 0.01 | 578
318 K, 9380 kPa, x1 = 0.025 | 700
318 K, 9410 kPa, x1 = 0.05 | 787
318 K, 9410 kPa, x1 = 0.1 | 894
318 K, 9430 kPa, x1 = 0.01 | 586
318 K, 9430 kPa, x1 = 0.025 | 705
318 K, 9480 kPa, x1 = 0.01 | 593
318 K, 9480 kPa, x1 = 0.025 | 709
318 K, 9480 kPa, x1 = 0.05 | 792
318 K, 9490 kPa, x1 = 0.15 | 952
318 K, 9530 kPa, x1 = 0.025 | 714
318 K, 9540 kPa, x1 = 0.01 | 602
318 K, 9540 kPa, x1 = 0.1 | 896
318 K, 9590 kPa, x1 = 0.025 | 718
318 K, 9600 kPa, x1 = 0.05 | 797
318 K, 9610 kPa, x1 = 0.01 | 611
318 K, 9660 kPa, x1 = 0.025 | 723
318 K, 9690 kPa, x1 = 0.01 | 619
318 K, 9730 kPa, x1 = 0.025 | 728
318 K, 9730 kPa, x1 = 0.1 | 900
318 K, 9760 kPa, x1 = 0.05 | 803
318 K, 9800 kPa, x1 = 0.01 | 631
318 K, 9800 kPa, x1 = 0.025 | 732
318 K, 9860 kPa, x1 = 0.025 | 737
318 K, 9880 kPa, x1 = 0.1 | 903
318 K, 9930 kPa, x1 = 0.01 | 642
318 K, 9940 kPa, x1 = 0.05 | 809
318 K, 9940 kPa, x1 = 0.15 | 956
318 K, 9950 kPa, x1 = 0.025 | 742
318 K, 10020 kPa, x1 = 0.01 | 652
318 K, 10050 kPa, x1 = 0.025 | 747
318 K, 10080 kPa, x1 = 0.01 | 657
318 K, 10130 kPa, x1 = 0.05 | 814
318 K, 10140 kPa, x1 = 0.1 | 906
318 K, 10150 kPa, x1 = 0.025 | 752
318 K, 10260 kPa, x1 = 0.025 | 757
318 K, 10320 kPa, x1 = 0.15 | 959
318 K, 10340 kPa, x1 = 0.05 | 820
318 K, 10340 kPa, x1 = 0.1 | 909
318 K, 10380 kPa, x1 = 0.025 | 762
318 K, 10500 kPa, x1 = 0.025 | 768
318 K, 10600 kPa, x1 = 0.05 | 825
318 K, 10610 kPa, x1 = 0.1 | 912
318 K, 10640 kPa, x1 = 0.025 | 773
318 K, 10750 kPa, x1 = 0.01 | 695
318 K, 10800 kPa, x1 = 0.025 | 779
318 K, 10850 kPa, x1 = 0.1 | 916
318 K, 10870 kPa, x1 = 0.05 | 832
318 K, 10920 kPa, x1 = 0.15 | 962
318 K, 10960 kPa, x1 = 0.025 | 784
318 K, 11040 kPa, x1 = 0.01 | 711
318 K, 11120 kPa, x1 = 0.025 | 789
318 K, 11140 kPa, x1 = 0.1 | 919
318 K, 11160 kPa, x1 = 0.05 | 838
318 K, 11320 kPa, x1 = 0.025 | 795
318 K, 11440 kPa, x1 = 0.1 | 922
318 K, 11470 kPa, x1 = 0.05 | 843
318 K, 11480 kPa, x1 = 0.15 | 966
318 K, 11520 kPa, x1 = 0.025 | 801
318 K, 11740 kPa, x1 = 0.025 | 806
318 K, 11750 kPa, x1 = 0.1 | 925
318 K, 11860 kPa, x1 = 0.05 | 850
318 K, 11950 kPa, x1 = 0.025 | 813
318 K, 11960 kPa, x1 = 0.15 | 969
318 K, 12090 kPa, x1 = 0.1 | 928
318 K, 12210 kPa, x1 = 0.025 | 818
318 K, 12240 kPa, x1 = 0.05 | 857
318 K, 12490 kPa, x1 = 0.025 | 824
318 K, 12600 kPa, x1 = 0.15 | 972
318 K, 12670 kPa, x1 = 0.05 | 862
318 K, 12770 kPa, x1 = 0.025 | 830
318 K, 12780 kPa, x1 = 0.1 | 935
318 K, 13080 kPa, x1 = 0.025 | 836
318 K, 13090 kPa, x1 = 0.15 | 975
318 K, 13150 kPa, x1 = 0.05 | 869
318 K, 13490 kPa, x1 = 0.025 | 843
318 K, 13580 kPa, x1 = 0.1 | 943
318 K, 13710 kPa, x1 = 0.15 | 978
318 K, 13740 kPa, x1 = 0.025 | 849
318 K, 13850 kPa, x1 = 0.05 | 878
318 K, 13990 kPa, x1 = 0.1 | 945
318 K, 14310 kPa, x1 = 0.15 | 982
318 K, 14380 kPa, x1 = 0.1 | 949
318 K, 15060 kPa, x1 = 0.15 | 986
318 K, 15680 kPa, x1 = 0.15 | 989
318 K, 16350 kPa, x1 = 0.15 | 992
318 K, 16950 kPa, x1 = 0.15 | 995
322.9 K, 9850 kPa, x1 = 0.01 | 518

mass density [kg/m3], high pressure variable cell
Details | x1 = 0.01 | x1 = 0.025 | x1 = 0.05 | x1 = 0.1 | x1 = 0.15
313.2 K, Liquid | 539 | 723 | 803 | 910 | 961
318 K, Gas | 516 | 677 | – | – | –
318 K, Liquid | – | – | – | 891 | 948
